Experimental data: patent US10030016B2 (Sunesis Pharmaceuticals, Inc., priority 2009, dated 2018)
Where a name gives a salt, the structure may show the parent alone. Read-outs that look alike come from different tables or passages of the source.

Tests used:
PDK1 = PDK1 (Homo sapiens (Human), UniProt O15530); assay: PDK1 kinase assay (coupled PDK1/AKT/FAM-crosstide assay, IMAP fluorescence polarization); format: biochemical
Procedure: A PDK1 kinase assay was performed as follows. PDK1 (amino acids 51-359) and AKT2 (amino acids 140-467 fused to PIFtide, amino acids […]) were expressed as N-terminally tagged GST fusion proteins in insect cells and purified to homogeneity. Enzyme activity was determined in a coupled PDK1/AKT/FAM-crosstide assay and phosphorylation of FAM-crosstide was determined by standard IMAP protocol (Molecular Devices). For inhibition studies, compounds were titrated 4-fold in DMSO and diluted 40-fold into assay buffer (10 mM Tris HCl pH7.2; 10 mM MgCl2; 0.01% Triton X-100; 1 mM DTT) containing PDK1, AKT2, and FAM-crosstide (final concentrations: 0.75 nM PDK1, 10 nM unphosphorylated AKT2, and 100 nM crosstide substrate). The kinase reaction was initiated by adding ATP to a final concentration of 40 μM of PDK1 and incubated at 25° C. for 30 min. To detect assay product, the kinase reaction was combined with Progressive Binding Solution (1:600 Progressive Binding Reagent, 50% Buffer A, 50% Buffer B, Molecular Devices) in a 1:3 ratio. The mixture was incubated for 2 hours at 25° C. and the plate was scanned on an Analyst AD with excitation at 485 nm and emission at 530 nm. The fluorescence polarization value “P” is defined by the equation below. The value “mP” is generated by multiplying the P value for each reaction well by a factor of 1000. The value “ΔmP” for each well is the mP value for that well minus the mP value for the average negative control. P=(Fpar−Fperp)/(Fpar+Fperp) Eq.:
Where “par” is fluorescence intensity parallel to the excitation plane; and “perp” is fluorescence intensity perpendicular to the excitation plane. ΔmP values were plotted as a function of compound concentration and the data were analyzed with a 4-parameter fit using GraphPad Prism software.

[1] = test system: phospho-akt (Thr308) in PC-3 cells; assay: Inhibition of phospho-akt (Thr308) in PC-3 cells, MSD phospho-akt 308 ELISA kit; format: cell-based; conditions: Homo sapiens, 2 hours, no serum, read-out: EC50
In short: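 Serum-free 2 h compound exposure of overnight-seeded PC-3 cells, threefold dilution series; lysates analysed on blocked MSD plates (3% BSA) for Thr308-phosphorylated Akt, normalised between DMSO and 5 μM wortmannin wells.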

[2] = inhibition of phospo-PDK1 in vitro
[3] = inhibition of P308 Akt in PC-3 cells, MSD
[4] = inhibition of P308 Akt in PC-3 cells using MSD

Sequence of PDK1 (O15530 51-359): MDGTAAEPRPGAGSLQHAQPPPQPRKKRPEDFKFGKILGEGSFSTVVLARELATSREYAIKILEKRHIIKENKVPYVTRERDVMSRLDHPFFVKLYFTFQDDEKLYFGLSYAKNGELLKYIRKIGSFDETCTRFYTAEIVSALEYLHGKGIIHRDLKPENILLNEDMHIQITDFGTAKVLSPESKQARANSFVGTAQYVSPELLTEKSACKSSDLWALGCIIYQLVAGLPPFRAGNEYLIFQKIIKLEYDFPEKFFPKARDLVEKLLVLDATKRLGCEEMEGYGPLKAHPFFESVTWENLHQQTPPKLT

## Cn1cc(C(=O)NCc2ccc(F)c(F)c2)c(NCc2ccc(-c3ccc4ncnc(N)c4c3)s2)n1 [Ex. 11.1]
PDK1; [2]
  IC50: < 100 nM
[1]; [3]
  EC50: 1000 to 10000 nM

## Nc1ncc(-c2ccc(CNc3ncc(C(F)(F)F)cc3C(=O)Nc3ccc(F)cc3)cc2)nc1O[C@H]1CCC[C@@H]1N [Example 170, 2-{4-[5-Amino-6-((1S,2S)-2-amino-cyclopentyloxy)-pyrazin-2-yl]-benzylamino}-N-(4-fluoro-phenyl)-5-trifluoromethyl-nicotinamide]
PDK1; inhibition of PDK1 in vitro
  IC50: < 100 nM
[1]; [4]
  EC50: 1000 to 10000 nM

## O=C(NCc1ccc(F)c(F)c1)c1cccnc1NCc1cnc(-c2c[nH]c3ncccc23)s1 [Ex. 6.10, N-(3,4-difluorobenzyl)-2-({[2-(1H-pyrrolo[2,3-b]pyridin-3-yl)-1,3-thiazol-5-yl]methyl}amino) pyridine-3-carboxamide]
PDK1; [2]
  IC50: 100 to 1000 nM
[1]; [3]
  EC50: 1000 to 10000 nM

## Nc1ncnc2ccc(-c3ccc(CNc4ncc(C(=O)N5CCOCC5)cc4C(=O)NCc4ccc(F)c(F)c4)s3)cc12 [Example 7.24.6, 2-({[5-(4-aminoquinazolin-6-yl)thiophen-2-yl]methyl}amino)-N^3-(3,4-difluorobenzyl)-5-(morpholin-4-ylcarbonyl)pyridine-3-carboxamide]
PDK1; [2]
  IC50: < 100 nM
[1]; [3]
  EC50: 1000 to 10000 nM

## C[C@@H](c1ccc(F)cc1)n1cnc2ccnc(NCc3ccc(-c4cc5c(N)ncnc5cn4)s3)c2c1=O [Example 7.12, 5-({[5-(4-aminopyrido [3,4-d]pyrimidin-6-yl)thiophen-2-yl]methyl}amino)-3-[(1S)-1-(4-fluorophenyl)ethyl] pyrido[4,3-d]pyrimidin-4(3H)-one]
PDK1; [2]
  IC50: > 5000 nM
[1]; [3]
  EC50: > 10000 nM

## C[C@H](NC(=O)c1cc(C#N)cnc1NCc1ccc(-c2cnc3[nH]cnc3c2)cc1)c1ccc(F)cc1 [Example 135, (S)-2-(4-(3H-imidazo [4,5-b]pyridin-6-yl)benzylamino)-5-cyano-N-(1-(4-fluorophenyl)ethyl)nicotinamide]
PDK1; inhibition of PDK1 in vitro
  IC50: < 100 nM
[1]; [4]
  EC50: < 1000 nM

## Nc1n[nH]c2ncc(-c3ccc(CNc4ncc(C(F)(F)F)cc4C(=O)NCCC4CC4)cc3)cc12 [Example 269, 2-(4-(3-amino-1H-pyrazolo [3,4-b]pyridin-5-yl)benzylamino)-N-(2-cyclopropylethyl)-5-(trifluoromethyl) nicotinamide]
PDK1; inhibition of PDK1 in vitro
  IC50: < 100 nM
[1]; [4]
  EC50: 1000 to 10000 nM

## Nc1ncnc2ccc(-c3ccc(CNc4ncccc4C(=O)NCc4cccnc4)s3)cc12 [Example 3.37, 2-({[5-(4-aminoquinazolin-6-yl)thiophen-2-yl]methyl}amino)-N-(pyridin-3-ylmethyl) pyridine-3-carboxamide (TFA salt)]
PDK1; [2]
  IC50: 100 to 1000 nM
[1]; [3]
  EC50: 1000 to 10000 nM

## Nc1ncnc2ccc(-c3ccc(CNc4ncc([N+](=O)[O-])cc4C(=O)NCc4ccc(F)c(F)c4)s3)cc12 [Ex. 8.2, 2-{[5-(4-Amino-quinazolin-6-yl)-thiophen-2-ylmethyl]-amino}-N-(3,4-difluoro-benzyl)-5-nitro-nicotinamide]
PDK1; [2]
  IC50: < 100 nM
[1]; [3]
  EC50: < 1000 nM

## C[C@H](NC(=O)c1cc(C#N)cnc1NCc1ccc(-c2cnc(Nc3ccn(C)n3)nc2)cc1)c1ccc(F)cc1 [Example 125, (S)-5-cyano-N-(1-(4-fluorophenyl)ethyl)-2-(4-(2-(1-methyl-1H-pyrazol-3-ylamino)pyrimidin-5-yl)benzylamino) nicotinamide]
PDK1; inhibition of PDK1 in vitro
  IC50: < 100 nM
[1]; [4]
  EC50: 1000 to 10000 nM

## Nc1ncc(-c2ccc(CNc3ncc(C(F)(F)F)cc3C(=O)Nc3ccc(F)cc3)cc2)nc1C(=O)N1CCNCC1 [Example 220, 2-{4-[5-Amino-6-(piperazine-1-carbonyl)-pyrazin-2-yl]-benzylamino}-N-(4-fluoro-phenyl)-5-trifluoromethyl-nicotinamide]
PDK1; inhibition of PDK1 in vitro
  IC50: < 100 nM
[1]; [4]
  EC50: 1000 to 10000 nM

## CCOc1ccnc(NCc2ccc(-c3ccc4ncnc(N)c4c3)s2)c1C(=O)N[C@@H](C)c1ccc(F)cc1 [Ex. 7.7, (S)-2-(((5-(4-aminoquinazolin-6-yl)thiophen-2-yl)methyl)amino)-N-(1-(4-fluoro-phenyl)ethyl)-4-ethoxynicotinamide]
PDK1; [2]
  IC50: 100 to 1000 nM
[1]; [3]
  EC50: > 10000 nM

## Nc1n[nH]c2ncc(-c3ccc(CNc4ncc(C(F)(F)F)cc4C(=O)Nc4ccncc4)cc3)cc12 [Example 288, 2-(4-(3-amino-1H-pyrazolo [3,4-b]pyridin-5-yl)benzylamino)-N-(pyridin-4-yl)-5-(trifluoromethyl) nicotinamide]
PDK1; inhibition of PDK1 in vitro
  IC50: < 100 nM
[1]; [4]
  EC50: 1000 to 10000 nM

## C[C@H](NC(=O)c1cc(C#N)cnc1NCc1ccc(-c2cnc3[nH]nc(CCCN(C)C)c3c2)cc1)c1ccc(F)cc1 [Example 149, (S)-5-cyano-2-(4-(3-(3-(dimethylamino)propyl)-1H-pyrazolo[3,4-b]pyridin-5-yl)benzyl-amino)-N-(1-(4-fluorophenyl)ethyl) nicotinamide]
PDK1; inhibition of PDK1 in vitro
  IC50: < 100 nM
[1]; [4]
  EC50: < 1000 nM

## C[C@H](NC(=O)c1nc(C#N)cnc1NCc1ccc(-c2cnc(N)c(O[C@@H]3CCNC3)n2)cc1)c1ccc(F)c(F)c1 [Example 161, 3-{4-[5-Amino-6-((R)-pyrrolidin-3-yloxy)-pyrazin-2-yl]-benzylamino}-6-cyano-pyrazine-2-carboxylic acid [(S)-1-(3,4-difluoro-phenyl)-ethyl]-amide]
PDK1; inhibition of PDK1 in vitro
  IC50: < 100 nM
[1]; [4]
  EC50: < 1000 nM

## C[C@H](NC(=O)c1nc(C#N)cnc1NCc1ccc(-c2cnc3[nH]nc(NC(=O)c4ccccc4)c3c2)cc1)c1ccc(F)c(F)c1 [Example 37, (S)-3-(4-(3-benzamido-1H-pyrazolo[3,4-b]pyridin-5-yl)benzylamino)-6-cyano-N-(1-(3,4-difluorophenyl)ethyl)pyrazine-2-carboxamide]
PDK1; [2]
  IC50: < 100 nM
[1]; [3]
  EC50: < 1000 nM

## CC(N)CCc1nc(-c2ccc(CNc3ncc(C#N)cc3C(=O)N[C@@H](C)c3ccc(F)cc3)cc2)cnc1N (stereo partly drawn) [Example 85, 2-{4-[5-Amino-6-(3-amino-butyl)-pyrazin-2-yl]-benzylamino}-5-cyano-N-[(S)-1-(4-fluoro-phenyl)-ethyl]-nicotinamide]
PDK1; inhibition of PDK1 in vitro
  IC50: < 100 nM
[1]; [4]
  EC50: < 1000 nM

## O=C(NCc1ccc(F)c(F)c1)c1cc(C(F)(F)F)cnc1NCc1ccc(-c2cnc3[nH]ncc3c2)cc1 [Example 2.37]
PDK1; [2]
  IC50: < 100 nM
[1]; [3]
  EC50: < 1000 nM

## Nc1ncc(-c2ccc(CNc3ncc(C(F)(F)F)cc3C(=O)Nc3ccc(F)cc3)cc2)nc1CC[C@@H]1CCCN1 [Example 75, 2-{4-[5-Amino-6-((S)-2-pyrrolidin-2-yl-ethyl)-pyrazin-2-yl]-benzylamino}-N-(4-fluoro-phenyl)-5-trifluoromethyl-nicotinamide]
PDK1; inhibition of PDK1 in vitro
  IC50: < 100 nM
[1]; [4]
  EC50: 1000 to 10000 nM

## Cc1cnc(/C=C2\C(=O)Nc3cc(/C=C/CNc4ncccc4C(=O)NCc4ccc(F)c(F)c4)ccc32)[nH]1 [Example 15.9, N-(3,4-Difluoro-benzyl)-2-((E)-3-{3-[1-(5-methyl-1H-imidazol-2-yl)-meth-(Z)-ylidene]-2-oxo-2,3-dihydro-1H-indol-6-yl}-allylamino)-nicotinamide]
PDK1; [2]
  IC50: < 100 nM
[1]; [3]
  EC50: 1000 to 10000 nM

## C[C@H](NC(=O)c1cc(C#N)cnc1NCc1ccc(-c2ccc3c(N)ncnn23)cc1)c1ccc(F)cc1 [Example 178, 2-[4-(4-Amino-pyrrolo [2,1-f][1,2,4]triazin-7-yl)-benzylamino]-5-cyano-N-[(S)-1-(4-fluoro-phenyl)-ethyl]-nicotinamide]
PDK1; inhibition of PDK1 in vitro
  IC50: < 100 nM
[1]; [4]
  EC50: 1000 to 10000 nM

## O=C1Nc2cc(/C=C/CNc3ncccc3C(=O)NCc3ccc(F)cc3)ccc2/C1=C/c1cnc[nH]1 [Example 15.21, 2-((E)-3-((Z)-3-((1H-imidazol-5-yl)methylene)-2-oxoindolin-6-yl)allylamino)-N-(4-fluorobenzyl)nicotinamide]
PDK1; [2]
  IC50: < 100 nM
[1]; [3]
  EC50: < 1000 nM

## C[C@H](NC(=O)c1cc(C#N)cnc1NCc1ccc(-c2cnc(NCCN(C)C)cn2)cc1)c1ccc(F)cc1 [Example 226, 5-Cyano-2-{4-[5-(2-dimethylamino-ethylamino)-pyrazin-2-yl]-benzylamino}-N-[(S)-1-(4-fluoro-phenyl)-ethyl]-nicotinamide]
PDK1; inhibition of PDK1 in vitro
  IC50: > 5000 nM
[1]; [4]
  EC50: > 10000 nM

## O=C(NCc1ccc(F)c(F)c1)c1cccnc1NCc1ccc(-c2ccc3ncnc(NCC(F)(F)F)c3c2)s1 [Example 4.22, N-(3,4-difluorobenzyl)-2-(((5-(4-(2,2,2-trifluoroethylamino)quinazolin-6-yl)thiophen-2-yl)methyl)amino)nicotinamide]
PDK1; [2]
  IC50: 100 to 1000 nM
[1]; [3]
  EC50: 1000 to 10000 nM

## Nc1ncnc2ccc(-c3ccc(CNc4ncccc4C(=O)NCc4ccccn4)s3)cc12 [Example 3.25, 2-({[5-(4-aminoquinazolin-6-yl)thiophen-2-yl]methyl}amino)-N-(pyridin-2-ylmethyl)pyridine-3-carboxamide (TFA salt)]
PDK1; [2]
  IC50: 1000 to 5000 nM
[1]; [3]
  EC50: > 10000 nM
